These are literature values, as cited in patent US8354043B2, “Natural gas odorization” (Enersol Inc., N.A.L.P., priority 2008, dated 2013).

Structures can show the parent of a compound that is named as a salt.

For the first data set the following is noted: 20° C. and 1 atm.
Turning to `CC(=O)C=O` [Compound 42, 2-Oxo-propanal], the “Pvap @ 20° C. (vapor pressure)” value was 0.52 psi. In the case of `CC(=O)CC(C)=O` [Compound 25, Aceylacetone], the “Pvap @ 20° C. (vapor pressure)” value is reported as 0.13 psi.

Consider `CC=CC=O` [Compound 43, 2-Butenal], for which the “Pvap @ 20° C. (vapor pressure)” value is 0.58 psi. As for `CCCOC=O` [Compound 48, Propyl formate], the “Pvap @ 20° C. (vapor pressure)” value was 1.60 psi. Regarding `CC(C)OC=O` [Compound 49, Isopropyl formate], the “Pvap @ 20° C. (vapor pressure)” value is on record as 2.67 psi. In the case of `O=CC1CCCC1` [Compound 36, Cyclopentaldehyde], the “Pvap @ 20° C. (vapor pressure)” value is listed as 0.17 psi. Take `O=C1CCCO1` [Compound 17, γ-Butyrolactone]: the “Pvap @ 20° C. (vapor pressure)” value was 0.03 psi. Consider `CCCC(=O)C(C)=O` [Compound 24, 2,3-Hexanedione], for which the “Pvap @ 20° C. (vapor pressure)” value is 0.19 psi. As for `CC(=O)CCC(C)=O` [Compound 27, 2,5-Hexanedione], the “Pvap @ 20° C. (vapor pressure)” value is 0.01 psi. Regarding `O=CC1CCCCC1` [Compound 34, Cyclohexanal], the “Pvap @ 20° C. (vapor pressure)” value is 0.05 psi.

The same data set, now with this note: 25° C. and 1 atm.
Take `CC(=O)C1CCCC1` [Compound 21, 1-Cyclopentyl-ethanone]: the “Pvap @ 25° C. (vapor pressure)” value is reported as 0.07 psi.

Regarding `O=C1C=CCC1` [Compound 18, 2-Cyclopenten-1-one], the “Pvap @ 25° C. (vapor pressure)” value is on record as 0.18 psi. Consider `CC(=O)CC(C)=O` [Compound 25, Aceylacetone], for which the “Pvap @ 25° C. (vapor pressure)” value was 0.06 psi.

In the case of `O=CC=O` [Compound 38, Ethanedial], the “Pvap @ 25° C. (vapor pressure)” value is listed as 4.93 psi. As to `O=c1ccocc1` [Compound 2, 4-Pyrone], the “Pvap @ 25° C. (vapor pressure)” value is listed as 0.004 psi. As for `C=CC(=O)CC` [Compound 29, Ethyl vinyl ketone], the “Pvap @ 25° C. (vapor pressure)” value is 0.74 psi.

As to `O=C1C=CCCC1` [Compound 9, 2-Cyclohex-2-en-1-one], the “Pvap @ 25° C. (vapor pressure)” value is on record as 0.07 psi. 3-Cyclohex-1-one [Compound 10]: the “Pvap @ 25° C. (vapor pressure)” value was 0.04 psi. Consider `O=C1CC=CO1` [Compound 15, 2(3H)-Furanone], for which the “Pvap @ 25° C. (vapor pressure)” value was 0.02 psi.

Turning to `CCOC=O` [Compound 47, Ethyl formate], the “Pvap @ 25° C. (vapor pressure)” value is given as 4.74 psi. `CC(=O)C1=CCCCC1` [Compound 13, 1-(1-Cyclohexen-1-yl)-ethanone]: the “Pvap @ 25° C. (vapor pressure)” value is listed as 0.003 psi. Consider `O=CCC=O` [Compound 39, Malondialdehyde], for which the “Pvap @ 25° C. (vapor pressure)” value is recorded as 0.09 psi. Consider `C=CC(C)=O` [Compound 28, Methyl vinyl ketone], for which the “Pvap @ 25° C. (vapor pressure)” value is on record as 2.94 psi. As for `O=C1CCCCC1` [Compound 11, Cyclohexanone], the “Pvap @ 25° C. (vapor pressure)” value is recorded as 0.08 psi.

For the compound `O=CCCCC=O` [Compound 41, Pentane-1,5-dial], the “Pvap @ 25° C. (vapor pressure)” value is reported as 0.01 psi. As to `CCC(=O)CC(C)=O` [Compound 26, 2,4-Hexandione], the “Pvap @ 25° C. (vapor pressure)” value is 0.06 psi.

Regarding `CCC(=O)C(C)=O` [Compound 23, 2,3-Petanedione], the “Pvap @ 25° C. (vapor pressure)” value is 0.60 psi.

With `O=C1CCCO1` [Compound 17, γ-Butyrolactone], the “Pvap @ 25° C. (vapor pressure)” value is listed as 0.01 psi. As for `CC(=O)C1CCCCC1` [Compound 12, Cyclohexyl methyl ketone], the “Pvap @ 25° C. (vapor pressure)” value was “.02 psi”.

Consider `CCCC(=O)C(C)=O` [Compound 24, 2,3-Hexanedione], for which the “Pvap @ 25° C. (vapor pressure)” value is listed as 0.06 psi. In the case of `CC(=O)CCC(C)=O` [Compound 27, 2,5-Hexanedione], the “Pvap @ 25° C. (vapor pressure)” value is reported as 0.06 psi.
